Results reported in PubChem BioAssay (NCI).
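Protocol summary: plate cells (96-well), add compound at 5 concentrations, incubate 48 h, interpolate endpoints linearly. Abbreviation: GI50, concentration required for 50% inhibition of growth. TGI: total growth inhibition.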

What was measured:
Assay in all cases: NCI-60 cell line screen, 48 h
HCT-116 colon = system: HCT-116 colon
BT-549 breast = system: BT-549 breast
IGROV1 ovarian = system: IGROV1 ovarian
ACHN renal = system: ACHN renal
SK-OV-3 ovarian = system: SK-OV-3 ovarian
SK-MEL-2 melanoma = system: SK-MEL-2 melanoma
SK-MEL-5 melanoma = system: SK-MEL-5 melanoma
HOP-92 NSCLC = system: HOP-92 NSCLC
HS 578T breast = system: HS 578T breast
NCI-H226 lung = system: NCI-H226 lung
TK-10 renal = system: TK-10 renal
HL-60(TB) leukemia = system: HL-60(TB) leukemia
LOX IMVI melanoma = system: LOX IMVI melanoma
CAKI-1 renal = system: CAKI-1 renal
HOP-62 NSCLC = system: HOP-62 NSCLC
UACC-62 melanoma = system: UACC-62 melanoma
M14 melanoma = system: M14 melanoma
MOLT-4 leukemia = system: MOLT-4 leukemia
CCRF-CEM leukemia = system: CCRF-CEM leukemia
PC-3 prostate = system: PC-3 prostate
NCI/ADR-RES ovarian = system: NCI/ADR-RES ovarian
RPMI-8226 leukemia = system: RPMI-8226 leukemia
MCF7 breast = system: MCF7 breast
HT29 colon = system: HT29 colon
MDA-MB-435 = system: MDA-MB-435
OVCAR-3 ovarian = system: OVCAR-3 ovarian
DU-145 prostate = system: DU-145 prostate
HCT-15 colon = system: HCT-15 colon
A549 NSCLC = system: A549 NSCLC

With `C#Cc1nc(C2=C(C)C(O)/C(=N/O)C2)cs1` (stereo not drawn) the GI50 (HCT-116 colon) was 42.2 µM, the TGI (HCT-116 colon) was greater than 100 µM and the GI50 (BT-549 breast) was 19.8 µM. For the same compound, the TGI (BT-549 breast) was 75.5 µM, the GI50 (IGROV1 ovarian) was 2.97 µM and the TGI (IGROV1 ovarian) was 12.1 µM. It also gave a GI50 (ACHN renal) of 3.61 µM, a TGI (ACHN renal) greater than 100 µM and a GI50 (SK-OV-3 ovarian) of 18.8 µM. It also gave a TGI (SK-OV-3 ovarian) of 39.3 µM, a GI50 (SK-MEL-2 melanoma) greater than 100 µM and a TGI (SK-MEL-2 melanoma) greater than 100 µM. The GI50 (SK-MEL-5 melanoma) was 54.6 µM, the TGI (SK-MEL-5 melanoma) was greater than 100 µM and the GI50 (HOP-92 NSCLC) was 18.1 µM. It also gave a TGI (HOP-92 NSCLC) of 34.1 µM, a GI50 (HS 578T breast) greater than 100 µM and a TGI (HS 578T breast) greater than 100 µM. It also gave a GI50 (NCI-H226 lung) greater than 100 µM, a TGI (NCI-H226 lung) greater than 100 µM and a GI50 (TK-10 renal) greater than 100 µM. It also gave a TGI (TK-10 renal) greater than 100 µM, a GI50 (HL-60(TB) leukemia) of 11.9 µM and a TGI (HL-60(TB) leukemia) of 29 µM. The GI50 (LOX IMVI melanoma) was 1.52 µM, the TGI (LOX IMVI melanoma) was 2.95 µM and the GI50 (CAKI-1 renal) was 48.3 µM. The TGI (CAKI-1 renal) was greater than 100 µM, the GI50 (HOP-62 NSCLC) was 94.9 µM and the TGI (HOP-62 NSCLC) was greater than 100 µM. For the same compound, the GI50 (UACC-62 melanoma) was greater than 100 µM, the TGI (UACC-62 melanoma) was greater than 100 µM and the GI50 (M14 melanoma) was greater than 100 µM. For the same compound, the TGI (M14 melanoma) was greater than 100 µM, the GI50 (MOLT-4 leukemia) was 15.1 µM and the TGI (MOLT-4 leukemia) was 40.9 µM. The GI50 (CCRF-CEM leukemia) was 2.21 µM, the TGI (CCRF-CEM leukemia) was 5.3 µM and the GI50 (PC-3 prostate) was 39.1 µM. The TGI (PC-3 prostate) was greater than 100 µM, the GI50 (NCI/ADR-RES ovarian) was 81.5 µM and the TGI (NCI/ADR-RES ovarian) was greater than 100 µM. It also gave a GI50 (RPMI-8226 leukemia) of 5.19 µM, a TGI (RPMI-8226 leukemia) of 21.8 µM and a GI50 (MCF7 breast) of 39 µM. For the same compound, the TGI (MCF7 breast) was greater than 100 µM, the GI50 (HT29 colon) was 25.7 µM and the TGI (HT29 colon) was 68.1 µM. The GI50 (MDA-MB-435) was greater than 100 µM, the TGI (MDA-MB-435) was greater than 100 µM and the GI50 (OVCAR-3 ovarian) was greater than 100 µM. For the same compound, the TGI (OVCAR-3 ovarian) was greater than 100 µM, the GI50 (DU-145 prostate) was 49.2 µM and the TGI (DU-145 prostate) was greater than 100 µM. It also gave a GI50 (HCT-15 colon) of 49 µM, a TGI (HCT-15 colon) greater than 100 µM and a GI50 (A549 NSCLC) of 35.3 µM. The TGI (A549 NSCLC) was greater than 100 µM.
